{"source": "patent US6380227B1", "about": "“Fermentative preparation process for and crystal forms of cytostatics” (Novartis AG, priority 1998, dated 2002)", "experiment": "Stability of crystal forms of epothilone B", "conditions": "storage, no test described", "data": [{"smiles": "C/C(=C\\c1csc(C)n1)[C@@H]1C[C@@H]2O[C@]2(C)CCC[C@H](C)[C@H](O)[C@@H](C)C(=O)C(C)(C)[C@@H](O)CC(=O)O1", "note": "[crystal form A, epothilone B]", "values": [{"measurement": "stability of the solid crystal form", "value": "especially stable"}]}]}
